Legend:
[1] = tested on: Beet Armyworm (Spodoptera exigua, LAPHEG); experiment: Bioassay on Beet Armyworm (BAW), 128-well diet tray assay; type: in vivo; settings: 168 h, 50 μg/cm^2 on artificial diet, second instar larvae, 25° C., five to seven days, average of eight wells, read-out: BAW % Control (or Mortality) rating
Protocol: (§1) Bioassays on Beet Armyworm (Spodoptera exigua, LAPHEG) (“BAW”) and Cabbage Looper (Trichoplusia ni, TRIPNI) (“CL”)
(§2) Certain molecules disclosed in this document were tested against BAW and CL using procedures described in the following examples. In the reporting of the results, the “BAW & CL Rating Table” was used (See Table Section).
Bioassays on BAW were conducted using a 128-well diet tray assay. One to five second instar BAW larvae were placed in each well (3 mL) of the diet tray that had been previously filled with 1 mL of artificial diet to which 50 μg/cm^2 of the test molecule (dissolved in 50 μL of 90:10 acetone-water mixture) had been applied (to each of eight wells) and then allowed to dry. Trays were covered with a clear self-adhesive cover, vented to allow gas exchange, and held at 25° C., 14:10 light-dark for five to seven days. Percent mortality was recorded for the larvae in each well; activity in the eight wells was then averaged. The results are indicated in the table entitled “Table ABC: Biological Results” (See Table Section).

[2] = tested on: Cabbage Looper (Trichoplusia ni, TRIPNI); experiment: Bioassay on Cabbage Looper (CL), 128-well diet tray assay; type: in vivo; settings: 168 h, 50 μg/cm^2 on artificial diet, second instar larvae, 25° C., five to seven days, average of eight wells, read-out: CL % Control (or Mortality) rating
Protocol: as §1, §2
Bioassays on CL were conducted using a 128-well diet tray assay. One to five second instar CL larvae were placed in each well (3 mL) of the diet tray that had been previously filled with 1 mL of artificial diet to which 50 μg/cm^2 of the test molecule (dissolved in 50 μL of 90:10 acetone-water mixture) had been applied (to each of eight wells) and then allowed to dry. Trays were covered with a clear self-adhesive cover, vented to allow gas exchange, and held at 25° C., 14:10 light-dark for five to seven days. Percent mortality was recorded for the larvae in each well; activity in the eight wells was then averaged. The results are indicated in the table entitled “Table ABC: Biological Results” (See Table Section).

[3] = tested on: Yellow Fever Mosquito (Aedes aegypti, AEDSAE); type: in vivo; settings: 4000 ppm DMSO master solution diluted, about 1 day-old larvae, room temperature, scored after 3 days
Protocol: Bioassays on Yellow Fever Mosquito (Aedes aegypti, AEDSAE) (“YFM”)
Certain molecules disclosed in this document were tested against YFM using procedures described in the following paragraph. In the reporting of the results, the “YFM Rating Table” was used (See Table Section).
Master plates containing 400 μg of a molecule dissolved in 100 μL of dimethyl sulfoxide (DMSO) (equivalent to a 4000 ppm solution) are used. A master plate of assembled molecules contains 15 μL per well. To this plate, 135 μL of a 90:10 water/acetone mixture is added to each well. A robot (Biomek® NXP Laboratory Automation Workstation) is programmed to dispense 15 μL aspirations from the master plate into an empty 96-well shallow plate (“daughter” plate). There are 6 reps (“daughter” plates) created per master. The created “daughter” plates are then immediately infested with YFM larvae.
The day before plates are to be treated, mosquito eggs are placed in Millipore water containing liver powder to begin hatching (4 g into 400 mL). After the “daughter” plates are created using the robot, they are infested with 220 μL of the liver powder/larval mosquito mixture (about 1 day-old larvae). After plates are infested with mosquito larvae, a non-evaporative lid is used to cover the plate to reduce drying. […] After 3 days, each well is observed and scored based on mortality. […]

SMILES	melting point	mortality at 50 µg/cm2 [1] [%]	mortality at 50 µg/cm2 [2] [%]	YFM % Control (or Mortality) rating [3]
Cc1ccc(C(C)C)c(N2C(=O)CS/C2=N\C(=O)Nc2ccc(CNc3ncn(-c4ccc(OC(F)(F)F)cc4)n3)cc2F)c1	236 to 238 °C			
CCCc1ccc(C)cc1N1C(=O)CS/C1=N\C(=O)Nc1ccc(CN(C)c2ncn(-c3ccc(OC(F)(F)F)cc3)n2)cn1	184 °C (dec.)			
CCCc1ccc(C)cc1N1C(=O)CS/C1=N\C(=O)Nc1ccc(CN(C)c2ncn(-c3ccc(OC(F)(F)F)cc3)n2)cc1F	174 to 176 °C			
COCc1ccc(C)cc1N1C(=O)CS/C1=N\C(=O)Nc1ccc(CNc2ncn(-c3ccc(OC(F)(F)F)cc3)n2)cc1F	205 to 207 °C			
CCCc1ccc(C)cc1N1C(=O)CS/C1=N\C(=O)Nc1ccc(CNc2ncn(-c3ccc(OC(F)(F)F)cc3)n2)cc1 [F3, (Z)-1-(3-(5-Methyl-2-propylphenyl)-4-oxothiazolidin-2-ylidene)-3-(4-(((1-(4-(trifluoromethoxy)phenyl)-1H-1,2,4-triazol-3-yl)amino)methyl)phenyl)urea]		50 to 100	50 to 100	A (80-100)
CCCc1ccc(C)cc1N1C(=O)CS/C1=N\C(=O)Nc1ccc(CNc2ncn(-c3ccc(OC(F)(F)F)cc3)n2)cc1F [F5, (Z)-1-(2-Fluoro-4-(((1-(4-(trifluoromethoxy)phenyl)-1H-1,2,4-triazol-3-yl)amino)methyl)phenyl)-3-(3-(5-methyl-2-propylphenyl)-4-oxothiazolidin-2-ylidene)urea]		50 to 100	50 to 100	A (80-100)
CCCc1ccc(C)cc1N1C(=O)CS/C1=N\C(=O)Nc1ccc(NCc2ncn(-c3ccc(OC(F)(F)F)cc3)n2)c(Cl)c1 [F44, (Z)-1-(3-Chloro-4-(((1-(4-(trifluoromethoxy)phenyl)-1H-1,2,4-triazol-3-yl)methyl)amino)phenyl)-3-(3-(5-methyl-2-propylphenyl)-4-oxothiazolidin-2-ylidene)urea]		50 to 100	50 to 100	
Cc1ccc(C(C)C)c(N2C(=O)CS/C2=N\C(=O)Nc2ccc(NCc3ncn(-c4ccc(OC(F)(F)F)cc4)n3)nc2)c1 [F46, (Z)-1-(3-(2-isopropyl-5-methylphenyl)-4-oxothiazolidin-2-ylidene)-3-(6-(((1-(4-(trifluoromethoxy)phenyl)-1H-1,2,4-triazol-3-yl)methyl)amino)pyridin-3-yl)urea]		50 to 100	50 to 100	
Cc1ccc(C(C)C)c(N2C(=O)CS/C2=N\C(=O)Nc2ccc(NCc3ncn(-c4ccc(OC(F)(F)F)cc4)n3)cn2)c1 [F47, (Z)-1-(3-(2-isopropyl-5-methylphenyl)-4-oxothiazolidin-2-ylidene)-3-(5-(((1-(4-(trifluoromethoxy)phenyl)-1H-1,2,4-triazol-3-yl)methyl)amino)pyridin-2-yl)urea]		50 to 100	50 to 100	
